Like-named read-outs stand apart in the source and are kept apart here. d = 2'-deoxy (DNA); r = 2'-OH (RNA)
Experiments:
[1] = tested on: intrinsic apoptotic pathway; assay: Activation of the intrinsic apoptotic pathway in 3Y1 cells; type: cell-based, Rat; conditions: for mitochondrial transmembrane potential: 10 mM ara-C
Experimental: (§1) Cell culture. Rat 3Y1 fibroblasts stably expressing the empty vector or full-length MUC1 (19) were cultured in Dulbecco's modified Eagle's medium containing 10% heat-inactivated fetal calf serum, 100 units/ml penicillin, […] streptomycin and 2 mM L-glutamine. Cells were treated with 25 mM LY294002 (Sigma), 10 mM 1-b-D-arabinofuranosycyltosine (ara-C; Sigma) or 50 mM gemcitabine (Eli Lilly).
Immunoblot analysis. Whole cell lysates and cytoplasmic fractions were prepared from subconfluent cells as described (Li et all., 1998; Li et al., 2001).
Assessment of mitochondrial transmembrane potential. Cells were incubated with 50 ng/ml Rhodamine 123 (Molecular Probes, Eugene, Oreg.) for 15 min at 37° C. After washing with PBS, samples were analyzed by flow cytometry using 488 nm excitation and measurement of emission through a 575/26 (ethidium) bandpass filter.
Isolation of mitochondria. Mitochondria were purified as described (Kumar et al., 2003).
MUC1 blocks activation of the intrinsic apoptotic pathway. Increases in phospho-Bad and Bcl-xL protect against apoptosis induced by activation of the intrinsic mitochondrial pathway (Van Heiden et al., 1997; Datta et al., 1995). To assess the effects of MUC1 on chemosensitivity, we treated cells with ara-C, an antimetabolite that induces release of mitochondrial cytochrome c and thereby apoptosis (Major et al., 1981; Kojima et al., 1998). Exposure of 3Y1/vector-A and -B cells to ara-C was associated with a decrease in mitochondrial transmembrane potential (FIG. 3A). […] Moreover, caspase-3-mediated cleavage of PKCd (Emoto et at., 1995) was attenuated in the MUC1 expressing cells. […] These findings indicate that MUC1 attenuates ara-C-induced activation of the intrinsic apoptotic pathway.

3Y1 fibroblasts = assay: Apoptosis assays (TUNEL, sub-G1 DNA) in 3Y1 cells; type: cell-based, Rat
Experimental: as §1
Apoptosis assays. For TUNEL staining, cells were fixed in 4% paraformaldehyde, permeabilized in 0.1% Triton X-100/0.1% sodium citrate for 2 min and processed according to the manufacturer's instructions (In Situ Cell Death detection kit, fluorescein; Roche). For analysis of sub-G1 DNA, cells were washed with PBS, fixed in 70% ethanol, incubated with 2.5 mg/ml propidium iodide and 50 mg/ml RNase, and then monitored by FACScan.
MUC1 attenuates ara-C- and gemcitabine-induced apoptosis. To determine if MUC1 affects induction of apoptosis by ara-C, the 3Y1/vector and 3Y1/MUC1 cells were analyzed for TUNEL staining and sub-G1 DNA. […] Moreover, ara-C treatment of 3Y1/vector cells was associated with over 40% apoptosis as determined by sub-G1 DNA analysis.
To extend these observations to other anti-cancer agents, we treated the 3Y1/vector and 3Y1/MUC1 cells with gemcitabine. As determined by analysis of sub-G1 DNA and as found with ara-C, gemcitabine-induced apoptosis was attenuated in 3Y1/MUC1, as compared to 3Y1/vector, cells.

MUC1 [2] = conditions: for MUC1 protein (immunoblot): 0.8 μM
Experimental: Cell Culture: Human MCF-7 breast carcinoma and HeLa cervical carcinoma cella (obtained form the ATCC, Manassas, Va.) were grown in DMEM (high glucose; Mediatech, Cellgrow) supplemented with 10% heat-inactivated fetal calf serum (FCS) and 2 mM L-glutamate.
Immunoblot analysis: Cells were lysed in ice-cold lysis buffer (20 mM Tris-HCl, pH 8.0, 150 mM NaCl, 1% Triton-X-100, 1 mM phenylsulfonyl fluoride, 1 mM DTT, 10 μgm/ml aprotinin) for 30 min. Lysates were cleared by centrifugation for 20 min. at 4° C. as described (Yin et al, 2001). Proteins were separated by SDS-PAGE, transferred to nitrocellulose and probed with anti-DF3/MUC1 (Kufe, U.S. Pat. No. 5,506,34) or anti-β-actin (Sigma). The antigen-antibody complexes were visualized by enhanced chemiluminescence (ECL; Amersham Life Sciences).
CDDO downregulates MUC1 expression: MUC1-positive cells were treated with CDDO at concentrations of 1, 3 and 5 μM.

MUC1 [3] = assay: Western blot of MUC1 after siRNA transfection; type: cell-based, human; conditions: MCF-7 cells; siRNA 0.2 micromolar; FIG. 5, FIG. 6
From the text: Cell Culture: Human MCF-7 breast cancer cells were maintained in DMEM supplemented with 10% heat inactivated fetal bovine serum (FBS) and 1% penicillin-streptomycin mixture. Human A549 non-small cell lung cancer cells were maintained in RPMI1640 medium supplemented with 10% FBS and 1% penicillin-streptomycin mixture.
siRNAs: Five different double stranded anti-MUC1 siRNAs were designed: one against the target sequence SEQ ID NO: 63, i.e., […], with sense and antisense strands as shown in SEQ ID NO: 64 and SEQ ID NO: 65 respectively (hereinafter siRNA #1); one against the target sequence SEQ ID NO: 42, i.e., […], with sense and antisense strands as shown in SEQ ID NO: 43 and SEQ ID NO: 44 respectively (hereinafter siRNA #2); one against the target sequence SEQ ID NO: 21, i.e., […], with sense and antisense strands as shown in SEQ ID NO: 22 and SEQ ID NO: 23 respectively (hereinafter siRNA #3); one against the target sequence SEQ ID NO: 66, i.e., […], with sense and antisense strands as shown by SEQ ID NO: 67 and SEQ ID NO: 68 respectively (hereinafter siRNA #4); and one against target sequence SEQ ID NO: 69, i.e., […], with sense and antisense strands as shown by SEQ ID NO: 70 and SEQ ID NO: 71 respectively (hereinafter siRNA #5). A control siRNA was designed against the scrambled target SEQ ID NO: 72 with sense and antisense strands as shown by SEQ ID NO: 73 and SEQ ID NO: 74 respectively. Each RNA sense oligonucleotide (50 μM) was combined with equal volume of antisense oligonucleotide (50 μM) in an annealing buffer (20 mM KCl, 6 mM HEPES-KOH, pH 7.5, 0.2 mM MgCl2). The solution was incubated for 1 min at 90° C. to denature secondary structure, and placed at 37° C. for 1 hour to anneal the complementary strands. The subsequent double stranded RNAs were used as the anti-MUC1 siRNA.
Transfection: Cells (1-3×10^5 cells/well) were plated in 6-well plates in growth medium without antibiotics, and incubated overnight. After washing cells once with Opti-MEM I (Invitrogen), 800 μL of fresh Opti-MEM I and 200 μL of the Reagent (Invitrogen) were added to the cultured cells. Four hours later, 300 μL of FBS was added to the cultured cells.
Western Blot Analysis: Cell were passed a day before transfection. MUC1 siRNA (0.2 micromolar) was added with oligofectamine to cells in 0% FBS. Four hours later serum was added to a final concentration of 10%. After various time intervals (48 h, 72 h and 96 h), cells were washed and total cell lysates were prepared. Proteins were separated from cell lysates by SDS-PAGE, transferred to nitrocellulose and analyzed by immunoblotting with anti-DF3 antibodies.

[4] = tested on: ZR-75-1 breast carcinoma cells; assay: Apoptosis assay (sub-G1 DNA) in ZR-75-1 cells; type: cell-based, human; conditions: ZR-75-1 cells; 10 and 50 μM etoposide
Experimental: Apoptosis assay: Apoptotic cells were quantified by analysis of sub-G1 DNA. Cells were harvested, washed with PBS, fixed with 80% ethanol, and incubated in PBS containing 20 ng/ml RNase (Roche) for 60 min at 37° C. Cells were stained with 40 μg/ml propidium iodide (Sigma) for 30 min at room temperature in the dark. DNA content was analyzed by flow cytometry (EPICS XL-MCL, Coulter Corp.).
As a control, stable transfection of ZR-75-1 cells with the empty reterovirus had no effect on MUC1 expression. […] By contrast, CDDP treatment of ZR-75-1/MUC1siRNA cells was associated with a clear loss of ΔΨm. In concert with these findings, cytochrome C release, as measured by immunoblot, was attenuated in CDDP-treated ZR-75-1/vector cells, as compared to ZR-75-1/MUC1siRNA cells. […] Treatment of ZR-75-1/vector cells with CDDP was associated with the induction of approximately 25% apoptosis.

HCT116 cells = assay: Apoptosis (sub-G1 DNA, TUNEL) in HCT116 transfectants; type: cell-based, human; conditions: HCT116/vector cells
Experimental: Methods. Apoptotic cells were quantified by analysis of sub-G1 DNA and TUNEL staining. To assess sub-G1 DNA content, cells were harvested, washed with PBS, fixed with 80% ethanol, and incubated in PBS containing 20 ng/ml RNase (Roche) for 60 min at 37° C. Cells were then stained with […] propidium iodide (Sigma) for 30 min at room temperature in the dark. DNA content was analyzed by flow cytometry (EPICS XL-MCL, Coulter Corp.). Apoptotic cells with DNA fragmentation were detected by staining with the In Situ cell death detection kit (TUNEL; Roche Applied Science) and visualized by confocal microscopy (ZEISS LSM510). After staining, cells were analyzed by flow cytometry. Other experimental procedures and methods were as described in Example 15.
Results. To determine if MUC1 affects the induction of apoptosis by CDDP, cells were analyzed for sub-G1 DNA content. […] Stimulation of cell surface death receptors with TNF-α or the TNF-related apoptosis inducing factor TRAIL is associated with activation of the extrinsic apoptotic pathway. To determine if MUC1 affects death receptor-induced apoptosis, HCT116 cells were treated with TNF-α.

MUC1 [5] = assay: MUC1 induction by oxidative and genotoxic stress (immunoblot); conditions: MCF-7 cells
Experimental: To determine whether MUC1 is induced in response to oxidative stress, MCF-7 cells were treated with hydrogen peroxide. Cell lysates were analyzed by immunoblotting with anti-DF3/MUC1 antibody. Lysates were prepared by suspending MCF-7 cells in lysis buffer (50 mM Tris, pH 7.6, 150 mM NaCl, 1 mM PMSF, 3 mM NaF, 1 mM sodium vandate, 1 mM DTT with protease inhibitors and either 1% NP-40 or 1% Brij-96) for 30 min. on ice. Lysates were cleared by centifugation and equal amounts of proteins were resolved by SDS-PAGE. Proteins were then transferred to nitrocellulose filters, blocked by incubation in 5% non-fat dry milk in PBS with 0.05% Tween-20 and probed with anti-MUC1 antibody (Pandey et al., 1995). Anti-actin was used as a control.
Similar studies were performed with genotoxic agents.

Nc1ccn([C@@H]2O[C@H](CO)[C@@H](O)[C@@H]2O)c(=O)n1 [ara-C, 1-b-D-arabinofuranosycyltosine]
mitochondrial transmembrane potential ([1]; 3Y1/MUC1 cells): apparent increase | activation of caspase-9 ([1]; 3Y1/MUC1 compared to 3Y1/vector cells): attenuated | release of cytochrome c into the cytosol ([1]; 3Y1/vector and 3Y1/MUC1 cells): release of cytochrome c into the cytosol of 3Y1/vector, and not 3Y1/MUC1 | mitochondrial transmembrane potential ([1]; 3Y1/vector-A and -B cells): decrease | caspase-3-mediated cleavage of PKCd ([1]; MUC1 expressing cells): attenuated | ara-C-induced apoptosis (3Y1 fibroblasts; 3Y1/MUC1 cells): significantly attenuated | apoptosis (sub-G1 DNA analysis) (3Y1 fibroblasts; 3Y1/vector cells): over 40% | TUNEL staining (3Y1 fibroblasts; 3Y1/vector, but not 3Y1/MUC1, cells): substantial induction

2-propyl-imadazole CDDO [CDDO-Pr-Im]
MUC1 protein (immunoblot) (MUC1 [2]): decreased levels

siRNA #4: double stranded anti-MUC1 siRNA, target SEQ ID NO: 66, sense SEQ ID NO: 67, antisense SEQ ID NO: 68 (sense GUUCAGUGCCCAGCUCUACTT; antisense GUAGAGCUGGGCACUGAACTT; sugars from the 5' end r19 d2, backbone not given here)
MUC1 expression at the protein level (immunoblot) (MUC1 [3]): downregulation of MUC1 expression

COc1cc([C@@H]2c3cc4c(cc3[C@@H](O[C@@H]3O[C@@H]5CO[C@@H](C)O[C@H]5[C@H](O)[C@H]3O)[C@H]3COC(=O)[C@H]23)OCO4)cc(OC)c1O [etoposide]
sensitivity on knocking-down MUC1 expression [4]: increased substantially

siRNA #3: double stranded anti-MUC1 siRNA, target SEQ ID NO: 21, sense SEQ ID NO: 22, antisense SEQ ID NO: 23 (sense AAGGAGACUUCGGCUGCCCTT; antisense GGGCAGCCGAAGUCUCCUUTT; sugars from the 5' end r19 d2, backbone not given here)
MUC1 expression at the protein level (immunoblot) (MUC1 [3]): downregulation of MUC1 expression

TNF-α
apoptosis (HCT116 cells; TNF-α alone): failed to induce apoptosis | apoptosis (HCT116 cells; in the presence of cycloheximide (CHX), FIG. 18): induction of HCT116/vector cell apoptosis

COc1cccc2c1C(=O)c1c(O)c3c(c(O)c1C2=O)C[C@@](O)(C(C)=O)C[C@@H]3O[C@H]1C[C@H](N)[C@H](O)[C@H](C)O1 [daunorubicin]
MUC1 expression (immunoblot) (MUC1 [5]): rapid and transient induction

CC1(C)CC[C@]2(C(=O)n3ccnc3)CC[C@]3(C)[C@H](C(=O)C=C4[C@@]5(C)C=C(C#N)C(=O)C(C)(C)[C@@H]5CC[C@]43C)[C@@H]2C1 [CDDO-Im, imadzole CDDO]
MUC1 protein (immunoblot) (MUC1 [2]): decreased levels

N[C@@H](CCC(=O)N[C@@H](CS)C(=O)NCC(=O)O)C(=O)O [GSH, glutathione]
CDDO-, CDDO-Me-, CDDO-Im- and CDDO-Pr-Im-induced decreases in MUC1 (MUC1 [2]; cells treated with antioxidant): blocked the effects

siRNA #5: double stranded anti-MUC1 siRNA, target SEQ ID NO: 69, sense SEQ ID NO: 70, antisense SEQ ID NO: 71 (sense GGUUUCUGCAGGUAAUGGUTT; antisense ACCAUUACCUGCAGAAACCTT; sugars from the 5' end r19 d2, backbone not given here)
MUC1 expression at the protein level (immunoblot) (MUC1 [3]): downregulation of MUC1 expression

COC(=O)[C@]12CCC(C)(C)C[C@H]1[C@H]1C(=O)C=C3[C@@]4(C)C=C(C#N)C(=O)C(C)(C)[C@@H]4CC[C@@]3(C)[C@]1(C)CC2 [CDDO-Me, CDDO methyl ester]
MUC1 expression (immunoblot) (MUC1 [2]; 1 μM, 12 hr and 24 hr): detectable at 12 hr and nearly complete at 24 hr

Nc1ccn([C@@H]2O[C@H](CO)[C@@H](O)C2(F)F)c(=O)n1 [gemcitabine]
gemcitabine-induced apoptosis (sub-G1 DNA) (3Y1 fibroblasts; 3Y1/MUC1 compared to 3Y1/vector cells, 50 mM gemcitabine): attenuated

From patent US20050042209A1, “MUC1 extracellular domain and cancer treatment compositions and methods derived therefrom” (priority 2000, published 2005)
